Target: ATP-dependent translocase ABCB1 (Homo sapiens, UniProt P08183)
Assay: TP_TRANSPORTER: increase in VCR intracellular accumulation (VCR: 0.03 uM, MS-073: 3 uM) in K562/ADM cells
Assay type: functional, cell-based
Details: k562/adr

ATP-dependent translocase ABCB1, sequence (P08183 whole entry): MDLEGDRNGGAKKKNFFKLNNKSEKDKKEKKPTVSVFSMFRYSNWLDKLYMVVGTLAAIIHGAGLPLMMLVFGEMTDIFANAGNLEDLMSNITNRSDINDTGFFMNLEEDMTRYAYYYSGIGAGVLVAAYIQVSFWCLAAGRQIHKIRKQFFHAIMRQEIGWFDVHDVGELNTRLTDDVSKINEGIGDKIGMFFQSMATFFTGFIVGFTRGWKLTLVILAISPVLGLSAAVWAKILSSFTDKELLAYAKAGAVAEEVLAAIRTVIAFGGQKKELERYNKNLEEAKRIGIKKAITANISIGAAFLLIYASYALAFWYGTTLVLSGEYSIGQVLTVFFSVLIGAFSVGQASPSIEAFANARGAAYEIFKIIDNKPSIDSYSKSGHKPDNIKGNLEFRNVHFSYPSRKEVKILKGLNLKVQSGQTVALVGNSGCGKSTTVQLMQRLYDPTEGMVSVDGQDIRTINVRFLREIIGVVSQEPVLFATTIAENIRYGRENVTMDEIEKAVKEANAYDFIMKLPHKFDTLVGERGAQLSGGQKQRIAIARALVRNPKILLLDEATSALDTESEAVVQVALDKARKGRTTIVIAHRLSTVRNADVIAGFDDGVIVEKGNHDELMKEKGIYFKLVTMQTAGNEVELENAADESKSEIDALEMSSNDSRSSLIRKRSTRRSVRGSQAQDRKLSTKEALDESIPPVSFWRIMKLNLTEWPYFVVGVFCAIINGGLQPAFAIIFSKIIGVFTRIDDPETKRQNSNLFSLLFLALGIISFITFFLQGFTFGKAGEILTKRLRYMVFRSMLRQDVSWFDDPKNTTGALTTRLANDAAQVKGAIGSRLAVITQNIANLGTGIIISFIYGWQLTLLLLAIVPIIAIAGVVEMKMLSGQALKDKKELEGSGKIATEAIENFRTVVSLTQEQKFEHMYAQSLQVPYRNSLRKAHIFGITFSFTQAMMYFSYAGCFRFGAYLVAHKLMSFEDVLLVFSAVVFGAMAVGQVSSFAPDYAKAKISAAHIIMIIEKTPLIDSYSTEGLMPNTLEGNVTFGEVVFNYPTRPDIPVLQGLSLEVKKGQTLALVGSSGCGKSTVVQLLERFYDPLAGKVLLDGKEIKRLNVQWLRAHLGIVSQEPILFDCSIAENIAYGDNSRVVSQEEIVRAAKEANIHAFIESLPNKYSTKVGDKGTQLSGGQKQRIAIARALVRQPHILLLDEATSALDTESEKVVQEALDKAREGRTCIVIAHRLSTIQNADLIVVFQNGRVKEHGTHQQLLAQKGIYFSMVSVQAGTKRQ

- Activity: inhibitor [+]
Structure (SMILES): OC(COc1cccc2ncccc12)CN1CCN(C2c3ccccc3CCc3ccccc32)CC1 (stereo unspecified)

— ChEMBL document CHEMBL2073976, “Circumvention of multidrug resistance by a newly synthesized quinoline derivative, MS-073” (Cancer Res, 1991)
